Measurements reported in patent US20210346329A1, “TCA CYCLE INTERMEDIATES AND METHODS OF USE THEREOF” (IMBRIA PHARMACEUTICALS, INC., priority 2018, published 2021).

Assay: Plasma concentrations of radioactive material
Format: in vivo, CD® rats
Conditions: IV 10 mg/kg
Method: The plasma-time course, routes and rates of excretion, and tissue distribution of radioactivity following a single oral dose of ^14C-labeled citrate or single oral dose of ^14C-labeled succinate were analyzed in rats.
Formulations were prepared on the day prior to dosing.
CD® rats were obtained from Charles River Laboratories. Animals were 9-11 weeks in age at beginning of study.
Animals given intravenous ^14C-succinate were not kept in a fasting state. ^14C-succinate was administered by tail vein injection.
Blood and plasma were collected by cardiac puncture for terminal collection at 0.5, 1, 2, 4, 8, and 24 hours post-dose. Blood was stored on an ice block or wet ice until centrifugation to obtain plasma. Triplicate aliquots were weighed, mixed with scintillation cocktail, and counted by LSC.
Samples were analyzed for radioactivity by liquid scintillation counting (LSC) for at least 5 minutes or 100,000 cumulative counts. Samples were analyzed in triplicate.

**Q.** Which “Plasma concentration of radioactive material” value (shortened to “Plasma concentration”) (30 min, Subject 1001) does the source give for `O=C(O)CCC(=O)O` [^14C-succinate] here?
**A.** 2809 ng-equivalents/g

**Q.** What about the “Plasma concentration” value (1 hr, Subject 1002) of the same molecule?
**A.** 2996 ng-equivalents/g

**Q.** What about the “Plasma concentration” value (2 hr, Subject 1003) of the same molecule?
**A.** 1466 ng-equivalents/g

**Q.** And the “Plasma concentration” value (4 hr, Subject 1004)?
**A.** 1158 ng-equivalents/g

**Q.** And the “Plasma concentration” value (8 hr, Subject 1005)?
**A.** 813 ng-equivalents/g

**Q.** What about the “Plasma concentration” value (24 hr, Subject 1006) of the same molecule?
**A.** 511 ng-equivalents/g
